From ChEMBL document CHEMBL5550171, “Poly (ADP-ribose) polymerase (PARP) inhibitors as anticancer agents: An outlook on clinical progress, synthetic strategies, biological activity, and structure-activity relationship” (Eur J Med Chem, 2024)

Key:
HCT-116 [1] = experiment: Cytotoxicity against human HCT-116 cells assessed as reduction in cell growth incubated for 96 hrs by MTT assay; assay type: functional, cell-based; conditions: HCT-116, 96 h
MDA-MB-231 [2] = experiment: Antiproliferative activity against human MDA-MB-231 cells assessed as reduction in cell growth incubated for 72 hrs by CCK-8 assay; assay type: functional, cell-based; conditions: MDA-MB-231, 72 h
CAPAN-1 [3] = experiment: Antiproliferative activity against human CAPAN-1 cells assessed as reduction in cell viability incubated for 72 hrs by CCK-8 assay; assay type: functional, cell-based; conditions: CAPAN-1, 72 h
MCF7 [4] = experiment: Antiproliferative activity against human MCF7 cells assessed as reduction in cell growth incubated for 72 hrs by CCK-8 assay; assay type: functional, cell-based; conditions: MCF7, 72 h
MDA-MB-436 [5] = experiment: Antiproliferative activity against human MDA-MB-436 cells assessed as reduction in cell viability incubated for 72 hrs by CCK-8 assay; assay type: functional, cell-based; conditions: MDA-MB-436, 72 h
A549 [6] = experiment: Antiproliferative activity against human A549 cells assessed as reduction in cell growth incubated for 72 hrs by CCK-8 assay; assay type: functional, cell-based; conditions: A549, 72 h
HCC1937 = experiment: Antiproliferative activity against human HCC1937 cells assessed as reduction in cell viability incubated for 72 hrs by CCK-8 assay; assay type: functional, cell-based; conditions: HCC1937, 72 h
K562 = experiment: Antiproliferative activity against human K562 cells assessed as reduction in cell growth incubated for 72 hrs by CCK-8 assay; assay type: functional, cell-based; conditions: K562, 72 h
[7] = target: T1, Poly [ADP-ribose] polymerase 1 (Homo sapiens, UniProt P09874); experiment: Inhibition of human PARP1
MDA-MB-436 [8] = experiment: Cytotoxicity against human MDA-MB-436 cells; assay type: functional, cell-based
[9] = tested on: Panel NCI-60 (60 carcinoma cell lines); experiment: Cytotoxicity against human Panel NCI-60 (60 carcinoma cell lines); assay type: functional, cell-based
HepG2 = experiment: Antiproliferative activity against human HepG2 cells assessed as reduction in cell growth incubated for 24 hrs by MTT assay; assay type: functional, cell-based; conditions: HepG2, 24 h
A549 [10] = experiment: Antiproliferative activity against human A549 cells assessed as reduction in cell growth incubated for 24 hrs by MTT assay; assay type: functional, cell-based; conditions: A549, 24 h
[11] = target: T2, Poly [ADP-ribose] polymerase 2 (Homo sapiens, UniProt Q9UGN5); experiment: Inhibition of PARP2 (unknown origin)
HCT-116 [12] = experiment: Antiproliferative activity against human HCT-116 cells assessed as reduction in cell growth incubated for 24 hrs by MTT assay; assay type: functional, cell-based; conditions: HCT-116, 24 h
MCF7 [13] = experiment: Antiproliferative activity against human MCF7 cells assessed as reduction in cell growth incubated for 24 hrs by MTT assay; assay type: functional, cell-based; conditions: MCF7, 24 h
MCF7 [14] = experiment: Cytotoxicity against human MCF7 cells assessed as reduction in cell growth incubated for 72 hrs by alamar blue reagent based analysis; assay type: functional; conditions: MCF7, 72 h
MDA-MB-231 [15] = experiment: Cytotoxicity against human MDA-MB-231 cells assessed as reduction in cell growth incubated for 72 hrs by alamar blue reagent based analysis; assay type: functional; conditions: MDA-MB-231, 72 h
Caco-2 = experiment: Cytotoxicity against human Caco-2 cells assessed as inhibition of cell growth incubated for 72 hrs by CCK-8 assay; assay type: functional, cell-based; conditions: Caco-2, 72 h
MCF7 [16] = experiment: Anticancer activity against human MCF7 cells assessed as reduction in cell viability; assay type: functional, cell-based
[17] = Cytotoxicity against African green monkey Vero cells; assay type: toxicity, cell-based, Chlorocebus sabaeus
[18] = target: T1, Poly [ADP-ribose] polymerase 1; experiment: Inhibition of human recombinant PARP1 at 100 uM relative to control
[19] = target: T1, Poly [ADP-ribose] polymerase 1; experiment: Inhibition of human recombinant PARP1 at 1 uM relative to control
[20] = target: T1, Poly [ADP-ribose] polymerase 1; experiment: Inhibition of human recombinant PARP1 at 10 uM relative to control
[21] = target: T1, Poly [ADP-ribose] polymerase 1; experiment: Inhibition of human recombinant PARP1 at 0.1 uM relative to control
[22] = Antiproliferative activity against human MCF10A cells assessed as inhibition of cell growth incubated for 72 hrs by alamar blue assay; assay type: functional, cell-based; conditions: MCF10AT1, 72 h
[23] = target: T1, Poly [ADP-ribose] polymerase 1; experiment: Inhibition of human recombinant PARP1 at 0.01 uM relative to control
MCF7 [24] = experiment: Antiproliferative activity against human MCF7 cells assessed as cell growth inhibition; assay type: functional, cell-based
MX1 = experiment: Antiproliferative activity against human MX1 cells assessed as cell growth inhibition; assay type: functional, cell-based
[25] = target: T1, Poly [ADP-ribose] polymerase 1; experiment: Inhibition of PARP1 (unknown origin)
CAPAN-1 [26] = experiment: Antiproliferative activity against human CAPAN-1 cells assessed as reduction in cell growth; assay type: functional, cell-based
MDA-MB-231 [27] = experiment: Cytotoxicity against human MDA-MB-231 cells assessed as reduction in cell viability incubated for 24 hrs by MTS assay; assay type: functional, cell-based; conditions: MDA-MB-231, 24 h
[28] = target: T1, Poly [ADP-ribose] polymerase 1; experiment: Inhibition of PARP1 (unknown origin) at 10 uM relative to control
MDA-MB-436 [29] = experiment: Cytotoxicity against human MDA-MB-436 cells assessed as reduction in cell viability incubated for 24 hrs by MTS assay; assay type: functional, cell-based; conditions: MDA-MB-436, 24 h
[30] = target: T1, Poly [ADP-ribose] polymerase 1; experiment: Inhibition of PARP1 (unknown origin) using biotinylated NAD+ as substrate by luminescence assay
[31] = Microsomal stability in human liver microsomes assessed as half life measured for 48 hrs by LC-MS/MS analysis; assay type: ADME, Microsome
MCF7 [32] = experiment: Cytotoxicity against human MCF7 cells assessed as reduction in cell viability incubated for 24 hrs by MTS assay; assay type: functional, cell-based; conditions: MCF7, 24 h
[33] = target: T2, Poly [ADP-ribose] polymerase 2; experiment: Inhibition of PARP2 (unknown origin) at 10 uM relative to control
[34] = target: T2, Poly [ADP-ribose] polymerase 2; experiment: Inhibition of PARP2 (unknown origin) using biotinylated NAD+ as substrate by luminescence assay
[35] = Microsomal stability in rat liver microsomes assessed as half life measured for 48 hrs by LC-MS/MS analysis; assay type: ADME, Microsome
[36] = target: T1, Poly [ADP-ribose] polymerase 1; experiment: Inhibition of human recombinant PARP1 expressed in Escherichia coli BL21(DE3)

T2 sequence (Q9UGN5 whole entry): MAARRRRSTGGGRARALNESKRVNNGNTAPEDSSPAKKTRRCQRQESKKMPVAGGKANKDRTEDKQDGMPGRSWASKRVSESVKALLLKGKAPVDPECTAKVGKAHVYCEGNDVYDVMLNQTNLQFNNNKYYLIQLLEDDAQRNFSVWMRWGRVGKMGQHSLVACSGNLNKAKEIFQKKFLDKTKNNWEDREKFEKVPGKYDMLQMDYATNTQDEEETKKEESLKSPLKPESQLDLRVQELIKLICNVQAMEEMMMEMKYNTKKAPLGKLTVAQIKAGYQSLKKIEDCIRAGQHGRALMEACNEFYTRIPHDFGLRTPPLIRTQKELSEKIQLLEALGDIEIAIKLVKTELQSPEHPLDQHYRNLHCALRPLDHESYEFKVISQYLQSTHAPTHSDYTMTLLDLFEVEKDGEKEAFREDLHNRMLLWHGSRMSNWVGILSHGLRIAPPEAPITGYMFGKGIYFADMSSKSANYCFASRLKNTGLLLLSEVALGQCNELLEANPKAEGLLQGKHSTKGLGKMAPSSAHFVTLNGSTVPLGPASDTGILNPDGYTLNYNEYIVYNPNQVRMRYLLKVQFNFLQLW
T1 sequence (P09874 whole entry): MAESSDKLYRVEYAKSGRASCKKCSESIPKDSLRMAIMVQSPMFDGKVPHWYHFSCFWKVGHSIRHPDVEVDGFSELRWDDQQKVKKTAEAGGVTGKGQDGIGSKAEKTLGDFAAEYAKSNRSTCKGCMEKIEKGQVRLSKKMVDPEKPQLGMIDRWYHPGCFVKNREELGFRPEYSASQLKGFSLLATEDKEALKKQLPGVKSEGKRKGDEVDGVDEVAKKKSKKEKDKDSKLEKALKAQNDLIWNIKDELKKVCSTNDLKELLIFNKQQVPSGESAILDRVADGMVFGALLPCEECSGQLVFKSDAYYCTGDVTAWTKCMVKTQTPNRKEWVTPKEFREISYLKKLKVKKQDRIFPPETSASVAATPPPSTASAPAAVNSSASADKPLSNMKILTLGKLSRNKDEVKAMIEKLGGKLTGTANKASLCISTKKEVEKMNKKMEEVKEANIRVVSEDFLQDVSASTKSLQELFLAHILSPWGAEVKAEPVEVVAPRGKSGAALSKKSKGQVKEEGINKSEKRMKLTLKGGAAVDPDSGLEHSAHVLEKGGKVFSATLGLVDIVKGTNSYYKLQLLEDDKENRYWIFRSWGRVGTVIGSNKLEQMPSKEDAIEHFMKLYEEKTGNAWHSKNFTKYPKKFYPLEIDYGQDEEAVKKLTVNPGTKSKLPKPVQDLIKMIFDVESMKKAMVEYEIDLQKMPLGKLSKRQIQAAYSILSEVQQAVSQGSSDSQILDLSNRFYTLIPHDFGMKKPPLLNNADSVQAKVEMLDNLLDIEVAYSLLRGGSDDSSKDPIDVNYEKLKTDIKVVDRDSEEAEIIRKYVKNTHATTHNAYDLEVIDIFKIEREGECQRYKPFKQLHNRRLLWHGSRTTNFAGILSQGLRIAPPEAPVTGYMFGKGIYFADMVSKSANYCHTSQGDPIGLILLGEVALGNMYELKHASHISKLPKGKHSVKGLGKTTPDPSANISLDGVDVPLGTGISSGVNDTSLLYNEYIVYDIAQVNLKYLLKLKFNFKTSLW

For `Nc1nc(S)nc2c1Oc1[nH]c(=O)[nH]c(=O)c1C2c1cccs1` (stereo unspecified), the IC50 (HCT-116 [1]) was 9.31 µM.

Compound `O=C(CCCc1ccc(N(CCCl)CCCl)cc1)N1CCN(C(=O)c2cc(Cc3n[nH]c(=O)c4ccccc34)ccc2F)CC1` has an IC50 (MDA-MB-231 [2]) of 53.8 µM, an IC50 (CAPAN-1 [3]) of 0.086 µM and an IC50 (MCF7 [4]) of 30.6 µM. For the same compound, the IC50 (MDA-MB-436 [5]) was 0.013 µM, the IC50 (A549 [6]) was 1.62 µM and the IC50 (HCC1937) was 0.18 µM. For the same compound, the IC50 (K562) was 10.4 µM.

`Cc1c(C(=O)/C=C/c2cccc([N+](=O)[O-])c2)nnn1-c1ccc(Br)cc1` gave an IC50 [7] of 0.00315 µM.

For `COc1ccc(/C=C2\CC3(CC4C2=NN(C(N)=S)C4c2ccc(OC)cc2)OCCO3)cc1` (stereo unspecified), the IC50 (MDA-MB-436 [8]) was 0.67 µM.

Compound `O=c1[nH]c2c(c(=O)[nH]1)C(c1cccs1)c1[nH]c(=S)n(-c3ccccc3)c(=O)c1O2` (stereo unspecified) has an IC50 (HCT-116 [1]) of 46 µM.

`CC(=O)c1nnn(-c2ccc(Br)cc2)c1C` showed an IC50 [9] of 0.018 µM.

`COc1ccc(/C=C2\CC3(CC4C2OC(=O)C(C(C)=O)C4c2ccc(OC)cc2)OCCO3)cc1` (stereo unspecified) gave an IC50 (MDA-MB-436 [8]) of 7.47 µM.

`O=C1CCc2cc(-c3ccccc3F)ccc2C2(CCCCC2)N1` gave an IC50 (HepG2) of 2.01 µM, an IC50 (A549 [10]) of 3.67 µM and an IC50 [11] of 0.0305 µM. For the same compound, the IC50 (HCT-116 [12]) was 3.94 µM and the IC50 (MCF7 [13]) was 4.25 µM.

Work on `COc1ccc(Cc2nnc(-c3cccc(-c4cccc(C=O)c4)c3)o2)cc1` yielded an IC50 (MCF7 [14]) of 1.4 µM and an IC50 (MDA-MB-231 [15]) of 29.3 µM.

In the case of `CCOC(=O)CO/N=C(\N)c1ccc(C)cc1`, the IC50 (Caco-2) is reported as 0.4 µM, the IC50 (MCF7 [16]) is reported as 0.32 µM and the IC50 [17] is reported as 0.48 µM.

For `COc1ccc(CSc2nccc(OCC(=O)N3CCN(c4cccc(Cl)c4Cl)CC3)n2)cc1`, the inhibition [18] was 82.1%, the inhibition [19] was 20.6% and the inhibition [20] was 53%. The inhibition [21] was 2%, the IC50 [22] was 18.2 µM and the inhibition [23] was 1.3%.

Work on `CCOC(=O)CO/N=C(\N)c1ccccc1` yielded an IC50 (Caco-2) of 0.43 µM, an IC50 (MCF7 [16]) of 0.8 µM and an IC50 [17] of 6.76 µM.

Work on `O=C1NCC(c2ccc(-c3ccc(C(F)(F)F)cc3)cc2)Nc2ccccc21` (stereo unspecified) yielded an IC50 (MCF7 [24]) of 37.9 µM and an IC50 (MX1) of 24.6 µM.

Work on `O=C(NCCc1ccc(F)cc1)c1cc(Cc2n[nH]c(=O)c3ccccc23)ccc1F` yielded an IC50 [25] of 0.00324 µM and an IC50 (CAPAN-1 [26]) of 7.5 µM.

`NC(=O)c1cccc2[nH]c(C3CCN(C4CCC(F)(F)CC4)CC3)nc12` showed an IC50 (MDA-MB-231 [27]) of 96.8 µM, an inhibition [28] of 47.9% and an IC50 (MDA-MB-436 [29]) of 28.3 µM. For the same compound, the IC50 [30] was 0.0043 µM, the half-life [31] was 4.38 h and the IC50 (MCF7 [32]) was 60.8 µM. The inhibition [33] was 90.8%, the IC50 [34] was 0.00158 µM and the half-life [35] was > 16.7 h.

`Cc1ccoc1C(=O)N1CCN(C(=O)c2ccc(-c3nc4c(C(N)=O)cccc4[nH]3)cc2)C(C)C1` (stereo unspecified) showed an IC50 [36] of 0.0163 µM.
